# In patent US20180125792A1, “NON-STEROIDAL ANTI-INFLAMMATORY DRUGS FOR COUGH” (BAYER CONSUMER CARE AG, priority 2006, published 2018):
# Legend:
# [1] = cited from earlier work
# [2] = 600 mg three times a day for 6 days; cited from earlier work
# [3] = Symptomatic treatment of nonproductive cough in 3 volunteer patients in the final phase of a viral infection; assay type: in vivo, human
# Method: The efficacy of ibuprofen in the symptomatic treatment of nonproductive cough was determined in 3 volunteer patients in the final phase of a viral infection. For this purpose, the patients received oral administration of 400 or 800 mg of ibuprofen (the daily dose was between 400 and 1200 mg). No other medicaments were taken by the patients during the viral infection.
# It was observed after administration of ibuprofen that the number of attacks of coughing was reduced by more than 50% relative to the number of attacks of coughing before administration of ibuprofen.
# The effects of ibuprofen declined after 6 to 8 hours and the cough reappeared in the former severity.
# [4] = oral 400 or 800 mg ibuprofen, patients' report
structure (smiles),measurement,setting,value
CC(C)Cc1ccc(C(C)C(=O)O)cc1 (stereo not drawn) [ibuprofen],symptoms of cough,"[1]; 10 mg/kg, 30 children, uncontrolled study",reduction in the symptoms of cough
same,number of coughing episodes compared with placebo,[2],reduction in the number of coughing episodes
same,number of attacks of coughing reduced relative to the number before administration,"[3]; oral 400 or 800 mg ibuprofen (daily dose 400-1200 mg), 3 patients",more than 50%
same,intensity of the urge to cough,[3]; [4],reduced
same,severity of the attacks of coughing,[3]; [4],reduced
same,patients' rest at night,"[3]; oral 400 or 800 mg ibuprofen, without additional cough suppressant",possible to improve the patients' rest at night
same,symptoms of cough after renewed administrations,[3]; subsequent renewed administrations of ibuprofen,again led to the described improvement
CS(=O)(=O)Nc1ccc([N+](=O)[O-])cc1Oc1ccccc1 [nimesulide],fever-reducing effect,"[1]; 5 days, nimesulide 2.5 mg/kg 2x a day vs paracetamol or ibuprofen 10 mg/kg 3x a day",better and faster than that of paracetamol or ibuprofen
CC(=O)Nc1ccc(O)cc1 [paracetamol],alleviation of the symptoms of cough,"[1]; 5 days, paracetamol 10 mg/kg 3x a day vs ibuprofen or nimesulide",greater
